Results published in US9375443B2 (Signal Pharmaceuticals, LLC, priority 2012, dated 2016).
Where two headings read alike, the source gives them in different places. Blank lines part the entries; values can stand above or below the compound they belong to.

Tests used:
A549 = assay: Proliferation Assays (NSCLC cell line sensitivity); assay type: cell-based
Calu-3 = assay: Proliferation Assays (NSCLC cell line sensitivity); assay type: cell-based; conditions: ACA, KRAS WT, EGFR wt (HER2+)
H1299 = assay: Proliferation Assays (NSCLC cell line sensitivity); assay type: cell-based; conditions: KRAS WT, EGFR WT
H157 = assay: Proliferation Assays (NSCLC cell line sensitivity); assay type: cell-based
H1650 = assay: Proliferation Assays (NSCLC cell line sensitivity); assay type: cell-based; conditions: KRAS WT, EGFR E746 A750del (exon19)
H1703 = assay: Proliferation Assays (NSCLC cell line sensitivity); assay type: cell-based; conditions: KRAS WT, EGFR WT
H1975 = assay: Proliferation Assays (NSCLC cell line sensitivity); assay type: cell-based; conditions: ACA, KRAS WT, EGFR L858R, T790M
H2009 = assay: Proliferation Assays (NSCLC cell line sensitivity); assay type: cell-based; conditions: KRAS MUT, EGFR WT
H2122 = assay: Proliferation Assays (NSCLC cell line sensitivity); assay type: cell-based; conditions: KRAS MUT, EGFR WT
H2126 = assay: Proliferation Assays (NSCLC cell line sensitivity); assay type: cell-based
H226 = assay: Proliferation Assays (NSCLC cell line sensitivity); assay type: cell-based; conditions: KRAS WT, EGFR WT
H3255 = assay: Proliferation Assays (NSCLC cell line sensitivity); assay type: cell-based; conditions: EGFR L858R
H441 = assay: Proliferation Assays (NSCLC cell line sensitivity); assay type: cell-based; conditions: BAC, KRAS MUT, EGFR WT
H460 = assay: Proliferation Assays (NSCLC cell line sensitivity); assay type: cell-based
H520 = assay: Proliferation Assays (NSCLC cell line sensitivity); assay type: cell-based; conditions: KRAS WT, EGFR WT
HCC15 = assay: Proliferation Assays (NSCLC cell line sensitivity); assay type: cell-based; conditions: SQC, KRAS WT, EGFR WT
HCC95 = assay: Proliferation Assays (NSCLC cell line sensitivity); assay type: cell-based; conditions: SQC, KRAS WT, EGFR WT
NCI-H23 = assay: Proliferation Assays (NSCLC cell line sensitivity); assay type: cell-based
[1] = test system: panel of NSCLC cell lines; assay: Proliferation Assays, panel of NSCLC cell lines; assay type: cell-based; conditions: various degrees of sensitivity
A549 xenografts = assay: A549 xenograft in nude mice; assay type: in vivo, athymic nude mice; conditions: erlotinib 40 mg/kg 3× per week oral gavage, Compound 1 5 mg/kg/daily oral gavage, Day 26 to day 53
Source text: (§1) A549 adenocarcinoma or H1975 cells in single cell suspension were implanted into the posterior flanks of athymic nude mice. […] For the A549 xenograft, the treatments were started on Day 26 after implantation and were stopped on day 53, while for the H1975 xenograft, the treatments were started on day 17 after implantation and were stopped on day 30.

H1975 xenografts = assay: H1975 xenograft in nude mice; assay type: in vivo, athymic nude mice; conditions: erlotinib 40 mg/kg 3× per week oral gavage, Compound 1 5 mg/kg/daily oral gavage, day 17 to day 30
Source text: as §1

IC50 (A549; A549, ACA, KRAS MUT G125, EGFR WT, read-out: IC50): 0.58 µM
IC50 (Calu-3): 0.184 µM
IC50 (H1299; Large Cell Neuroendocrin): 3.09 µM
IC50 (H157; H157, SQC, KRAS MUT, EGFR WT): 2.61 µM
IC50 (H1650; ACA): 5.2 µM
IC50 (H1703; SCC): 1.64 µM
IC50 (H1975): 0.25 µM
IC50 (H2009; ACA): 5.05 µM
IC50 (H2122; ACA): 1.59 µM
IC50 (H2126; H2126, ACA, KRAS WT, EGFR WT, read-out: IC50): 0.214 µM
IC50 (H226; SQC): 1.98 µM
IC50 (H3255; ACA): 11.9 µM
IC50 (H441; ACA): 0.392 µM
IC50 (H460; H460, LCC, KRAS MUT G61H, EGFR WT, read-out: IC50): 0.153 µM
IC50 (H520; SQC): 0.374 µM
IC50 (HCC15): 6.37 µM
IC50 (HCC95): 0.724 µM
IC50 (NCI-H23; NCI-H23, ACA, KRAS MUT 12 mutation G12C, read-out: IC50): 3 µM
SMILES: CO[C@H]1CC[C@H](N2C(=O)CNc3ncc(-c4ccc(C(C)(C)O)nc4)nc32)CC1 [Compound 1, 7-(6-(2-hydroxypropan-2-yl)pyridin-3-yl)-1-((1r,4r)-4-methoxycyclohexyl)-3,4-dihydropyrazino-[2,3-b]pyrazin-2(1H)-one]
anti-proliferative activity [1]: demonstrated anti-proliferative activity

IC50 (A549; Homo sapiens, A549, read-out: IC50 (value in parentheses beside > 10 μM)): 25.2 µM
IC50 (A549; Homo sapiens, A549, ACA, KRAS MUT G125, EGFR WT, read-out: IC50): > 10 µM
IC50 (Calu-3; Homo sapiens): 7.09 µM
IC50 (H1299; Homo sapiens, NCI-H1299, Large Cell Neuroendocrin): > 10 µM
IC50 (H157; Homo sapiens, NCI-H157): > 10 µM
IC50 (H1650; Homo sapiens, NCI-H1650, ACA): 2.84 µM
IC50 (H1703; Homo sapiens, NCI-H1703, SCC): > 10 µM
IC50 (H2009; Homo sapiens, NCI-H2009, ACA): 15.3 µM
IC50 (H2122; Homo sapiens, NCI-H2122, ACA): > 10 µM
IC50 (H2126; Homo sapiens, NCI-H2126, read-out: IC50 (value in parentheses beside > 10 μM)): 19.8 µM
IC50 (H2126; Homo sapiens, NCI-H2126, H2126, ACA, KRAS WT, EGFR WT, read-out: IC50): > 10 µM
IC50 (H226; Homo sapiens, NCI-H226, SQC): > 10 µM
IC50 (H3255; Homo sapiens, NCI-H3255, ACA): 0.205 µM
IC50 (H441; Homo sapiens, NCI-H441, ACA): > 10 µM
IC50 (H460; Homo sapiens, NCI-H460, read-out: IC50 (value in parentheses beside > 10 μM)): 18 µM
IC50 (H460; Homo sapiens, NCI-H460, H460, LCC, KRAS MUT G61H, EGFR WT, read-out: IC50): > 10 µM
IC50 (H520; Homo sapiens, NCI-H520, SQC): > 10 µM
IC50 (HCC15): > 10 µM
IC50 (HCC95; Homo sapiens): 6.45 µM
IC50 (NCI-H23; Homo sapiens, NCI-H23, read-out: IC50 (value in parentheses beside > 10 μM)): 22.8 µM
IC50 (NCI-H23; Homo sapiens, NCI-H23, ACA, KRAS MUT 12 mutation G12C, read-out: IC50): > 10 µM
SMILES: C#Cc1cccc(Nc2ncnc3cc(OCCOC)c(OCCOC)cc23)c1 [Erlotinib, erlotinib]
anti-proliferative activity [1]: demonstrated anti-proliferative activity
tumor growth during treatment (A549 xenografts): resistant
tumor growth during treatment (H1975 xenografts): moderately sensitive
